# Key:
# [1] = test system: M. sexta; assay: Injection of plectoxins into insect larvae (toxicity); assay type: in vivo, Manduca sexta
# Method: (§1) Polypeptides isolated from or those showing substantial homology to those isolated from the venom of Plectreurys tristis are useful as insecticidal agents. In particular, they are useful insecticidal agents against insects of the order Lepidoptera, for example, Heliothis virescens, Autographa californica, and the insects of the genus Spodoptera. Both the purified plectoxin and viruses transformed to produce the plectoxin are assayed for bioactivity on larvae including: tobacco hornworms (Manduca sexta), tobacco budworms (Heliothis virescens) and beet armyworm (Spodoptera exizua).
# (§2) Venom from P. tristis is obtained from Spider Pharm, Black Canyon City, Az. Crude venom (approximately 200 μl per injection) is fractionated by reversed-phase liquid chromatography (LC) using the following conditions: a Perkin Elmer Model 410 Bio solvent delivery system; 5 ml injection loop; Hewlett Packard Model 1040M diode array detector at 220 and 280 nm; Aquapore ODS column, 22×1 cm (Brownlee Labs, Santa Clara, Calif.); 4.5 ml/min; acetonitrile (MeCN) in a constant 0.1% trifluoroacetic acid, 0% MeCN for 5 min, then linear gradient of 0 to 60% MeCN over 55 min. Similar fractions from several runs are combined and portions are removed for bioassays. […]
# [2] = test system: H. virescens; assay: as above; assay type: in vivo, Heliothis virescens
# Method: as §1, §2
# [3] = test system: insects; assay: Insect toxicity (paralysis and/or death of test larvae), general statements; assay type: in vivo; details: injection of a number of different insects
# Method: as §1
# [4] = test system: S. exigua; assay: Injection of plectoxins into insect larvae (toxicity); assay type: in vivo, Spodoptera exigua
# Method: as §1
# Various plectoxins isolated from venom are injected into three different insect larvae. […] ED50 is the dose which is effective to paralyze 50% of the larvae at one hour. Values with an asterisk denote duplicate analysis with samples from different milking lots.
# [5] = dose paralyzing 50% of larvae at one hour
# [6] = lethal dose for 50% of treated larvae at 24 hours
substance,measurement,setting,value
Plt-VI (AVKCIGWQETCNGNLPCCNECVMCECNIMGQNCRCNHPKATNECES),ED50,[1]; [5],0.10 µg/g
same,LD50,[1]; [6],0.15 µg/g
same,ED50,[2]; [5],0.21 µg/g
same,LD50,[2]; [6],1.2 µg/g
same,paralytic activity upon injection,[3],very high level of paralytic activity
same,ED50,[4]; [5],0.32 µg/g
same,LD50,[4]; [6],> 10 µg/g

# Reference: US6265376A, “Insecticidal plectoxins from plectreurys tristis” (Novartis AG, priority 1995, dated 2001)
